Laboratory results taken from US9828379B2 (priority 2013, dated 2017).

Experiments:
MAGL [1] = target: T1, MAGL (Mus musculus, UniProt O35678); assay: biochemical; details: mouse; in vitro competitive ABPP; read-out: Mouse (IC50 value, nM) MAGL
T1 sequence (O35678 1-303): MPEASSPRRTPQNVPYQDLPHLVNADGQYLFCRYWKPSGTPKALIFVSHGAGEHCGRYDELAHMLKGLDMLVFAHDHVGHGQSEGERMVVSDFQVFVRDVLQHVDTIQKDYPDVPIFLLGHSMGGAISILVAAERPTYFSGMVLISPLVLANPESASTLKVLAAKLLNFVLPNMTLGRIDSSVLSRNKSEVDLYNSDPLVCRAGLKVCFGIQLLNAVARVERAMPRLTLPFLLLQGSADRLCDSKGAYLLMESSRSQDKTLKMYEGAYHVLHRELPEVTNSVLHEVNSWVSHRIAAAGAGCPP

FAAH [2] = target: T2, FAAH (Mus musculus, UniProt O08914); assay: biochemical; details: in vitro competitive ABPP
T2 sequence (O08914 1-579): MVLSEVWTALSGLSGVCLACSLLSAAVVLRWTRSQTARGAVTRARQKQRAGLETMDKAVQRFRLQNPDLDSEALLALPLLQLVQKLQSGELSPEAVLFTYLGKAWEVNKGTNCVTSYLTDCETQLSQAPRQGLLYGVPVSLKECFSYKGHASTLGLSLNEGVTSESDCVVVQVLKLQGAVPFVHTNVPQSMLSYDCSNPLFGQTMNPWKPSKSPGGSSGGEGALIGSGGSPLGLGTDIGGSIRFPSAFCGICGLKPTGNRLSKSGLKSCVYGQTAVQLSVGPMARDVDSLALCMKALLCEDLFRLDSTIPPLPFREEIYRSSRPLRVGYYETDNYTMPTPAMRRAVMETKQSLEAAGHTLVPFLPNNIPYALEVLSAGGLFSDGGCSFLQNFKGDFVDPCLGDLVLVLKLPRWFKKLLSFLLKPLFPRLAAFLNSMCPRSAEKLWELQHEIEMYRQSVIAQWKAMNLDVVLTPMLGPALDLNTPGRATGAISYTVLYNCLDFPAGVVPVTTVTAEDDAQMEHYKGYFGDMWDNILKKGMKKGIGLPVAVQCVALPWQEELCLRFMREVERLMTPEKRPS

MAGL [3] = target: T1, MAGL; assay: In vitro competitive activity-based protein profiling (Table 2, % inhibition at 1 μM); assay type: biochemical; details: read-out: % Inhibition at 1 μM MAGL
Protocol: After 30 min, FP—Rh (1.0 μL, 50 μM in DMSO) was added and the mixture was incubated for another 30 min at 37° C. Reactions were quenched with SDS loading buffer (50 μL-4×) and run on SDS-PAGE.
Cell lysates were diluted with mock proteomes for use in competitive ABPP experiments.

ABHD6 [4] = target: T3, ABHD6 (Mus musculus, UniProt Q8R2Y0); assay: biochemical; details: in vitro competitive ABPP
T3 sequence (Q8R2Y0 1-336): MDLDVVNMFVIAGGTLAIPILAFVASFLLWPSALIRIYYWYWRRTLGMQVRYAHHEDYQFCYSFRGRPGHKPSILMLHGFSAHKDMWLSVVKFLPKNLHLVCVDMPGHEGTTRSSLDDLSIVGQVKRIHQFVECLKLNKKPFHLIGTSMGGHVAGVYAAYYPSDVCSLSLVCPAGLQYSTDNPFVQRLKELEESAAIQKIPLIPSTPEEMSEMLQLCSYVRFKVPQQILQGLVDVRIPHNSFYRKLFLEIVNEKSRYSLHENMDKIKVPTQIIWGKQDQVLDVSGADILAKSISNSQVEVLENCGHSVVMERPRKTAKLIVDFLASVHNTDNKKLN

Mouse brain MAGL = target: T4, Mouse brain MAGL (Mus musculus, UniProt O35678); assay: Mouse brain proteomes from inhibitor treated mice (oral gavage, ABPP analysis); assay type: in vivo; details: p.o., sacrificed 4 h following administration
T4 construct: from tissue; host or cells: brain of wild-type C57Bl/6J mice dosed by oral gavage
T4 sequence (O35678 1-303): T1 sequence (O35678 1-303)
Protocol: After 30 min, FP—Rh (1.0 μL, 50 μM in DMSO) was added and the mixture was incubated for another 30 min at 37° C. Reactions were quenched with SDS loading buffer (50 μL-4×) and run on SDS-PAGE. Following gel imaging, serine hydrolase activity was determined by measuring fluorescent intensity of gel bands corresponding to MAGL, ABHD6 and FAAH using ImageJ 1.43 u software.
Inhibitors were administered to wild-type C57Bl/6J by oral gavage in a vehicle of polyethylene glycol. Each animal was sacrificed 4 h following administration and brain proteomes were prepared and analyzed according to previously established methods (See Niphakis, M. J., et al. (2011) ACS Chem. Neurosci. and Long, J. Z., et al. Nat. Chem. Biol. 5:37-44).

ABHD6 [5] = target: T3, ABHD6; assay: In vitro competitive activity-based protein profiling (Table 2, % inhibition at 1 μM); assay type: biochemical; details: read-out: % Inhibition at 1 μM ABHD6
FAAH [6] = target: T2, FAAH; assay: as above; assay type: biochemical; details: read-out: % Inhibition at 1 μM FAAH

| SMILES | IC50 (MAGL [1]) | IC50 (FAAH [2]) | inhibition at 1 µM (MAGL [3]) | IC50 (ABHD6 [4]) | inhibition at 5 mg/kg (Mouse brain MAGL) | inhibition at 1 µM (ABHD6 [5]) | inhibition at 1 µM (FAAH [6]) |
| --- | --- | --- | --- | --- | --- | --- | --- |
| CC(C)n1cc(CN2CC3CN(C(=O)OC(C(F)(F)F)C(F)(F)F)CC3C2)c(-c2cccc(Cl)c2)n1 (stereo not shown) [Example 174, 1,1,1,3,3,3-hexafluoropropan-2-yl 5-[[3-(3-chlorophenyl)-1-(propan-2-yl)-1H-pyrazol-4-yl]methyl]-octahydropyrrolo[3,4-c]pyrrole-2-carboxylate] | < 100 nM | 1000 to 10000 nM | > 75% | 1000 to 10000 nM | ≤ 25% | 25 to 75% | < 25% |
| O=C(OC(C(F)(F)F)C(F)(F)F)N1CC2CN(Cc3cccc(Cl)c3N3CCC4(CCOCC4)C3)CC2C1 (stereo not shown) [Example 172, 1,1,1,3,3,3-hexafluoropropan-2-yl 5-[(3-chloro-2-[8-oxa-2-azaspiro[4.5]decan-2-yl]phenyl)methyl]-octahydropyrrolo[3,4-c]pyrrole-2-carboxylate] | < 100 nM | > 10000 nM | > 75% | 1000 to 10000 nM | ≤ 25% | < 25% | < 25% |
| CC(C)c1cc(CN2CC3CN(C(=O)OC(C(F)(F)F)C(F)(F)F)CC3C2)n(C2CCCCC2)n1 (stereo not shown) [Example 61, 1,1,1,3,3,3-Hexafluoropropan-2-yl 5-[[1-cyclohexyl-3-(propan-2-yl)-1H-pyrazol-5-yl]methyl]-octahydropyrrolo[3,4-c]pyrrole-2-carboxylate] | < 100 nM | > 10000 nM | > 75% | 1000 to 10000 nM | ≥ 75% | 25 to 75% | < 25% |
| Cc1c(CN2CC3CN(C(=O)OC(C(F)(F)F)C(F)(F)F)CC3C2)cccc1N1CCCCC1 (stereo not shown) [Example 29, 1,1,1,3,3,3-Hexafluoropropan-2-yl 5-[[2-methyl-3-(piperidin-1-yl)phenyl]methyl]-octahydropyrrolo[3,4-c]pyrrole-2-carboxylate] | < 100 nM | 1000 to 10000 nM | > 75% | > 10000 nM | ≤ 25% | < 25% | 25 to 75% |
| CC(=O)N1CCN(c2cccc(CN3CC4CN(C(=O)OC(C(F)(F)F)C(F)(F)F)CC4C3)c2C)CC1 (stereo not shown) [Example 152, 1,1,1,3,3,3-hexafluoropropan-2-yl 5-[[3-(4-acetylpiperazin-1-yl)-2-methylphenyl]methyl]-octahydropyrrolo[3,4-c]pyrrole-2-carboxylate] | < 100 nM | 1000 to 10000 nM | > 75% | 1000 to 10000 nM | ≤ 25% | 25 to 75% | < 25% |
| CCn1cc(CN2CC3CN(C(=O)OC(C(F)(F)F)C(F)(F)F)CC3C2)c(-c2cccc(N3CCCC3)c2)n1 (stereo not shown) [Example 64, 1,1,1,3,3,3-Hexafluoropropan-2-yl 5-([1-ethyl-3-[3-(pyrrolidin-1-yl)phenyl]-1H-pyrazol-4-yl]methyl)-octahydropyrrolo[3,4-c]pyrrole-2-carboxylate] | < 100 nM | 1000 to 10000 nM | > 75% | 1000 to 10000 nM | 25 to 75% | < 25% | < 25% |
| CS(=O)(=O)N1CCC2(CCN(c3ccccc3CN3CC4CN(C(=O)OC(C(F)(F)F)C(F)(F)F)CC4C3)C2)C1 (stereo not shown) [Example 134, 1,1,1,3,3,3-hexafluoropropan-2-yl 5-[(2-[7-methanesulfonyl-2,7-diazaspiro[4.4]nonan-2-yl]phenyl)methyl]-octahydropyrrolo[3,4-c]pyrrole-2-carboxylate] | < 100 nM | 1000 to 10000 nM | > 75% | 1000 to 10000 nM | ≤ 25% | < 25% | 25 to 75% |
| O=C(OC(C(F)(F)F)C(F)(F)F)N1CC2CN(Cc3cccc(Cl)c3N3CCC4(CCOC4)C3)CC2C1 (stereo not shown) [Example 42, 1,1,1,3,3,3-Hexafluoropropan-2-yl 5-[(3-chloro-2-[2-oxa-7-azaspiro[4.4]nonan-7-yl]phenyl)methyl]-octahydropyrrolo[3,4-c]pyrrole-2-carboxylate] | < 100 nM | 1000 to 10000 nM | > 75% | 1000 to 10000 nM | 25 to 75% | < 25% | < 25% |
| CCn1cc(CN2CC3CN(C(=O)OC(C(F)(F)F)C(F)(F)F)CC3C2)c(C(=O)NCc2ccccc2)n1 (stereo not shown) [Example 78, 1,1,1,3,3,3-Hexafluoropropan-2-yl 5-((3-(benzylcarbamoyl)-1-ethyl-1H-pyrazol-4-yl)methyl)hexahydropyrrolo[3,4-c]pyrrole-2(1H)-carboxylate] | < 100 nM | > 10000 nM | > 75% | 1000 to 10000 nM | 25 to 75% | 25 to 75% | < 25% |
| O=C(OC(C(F)(F)F)C(F)(F)F)N1CC2CN(Cc3ccc(Cl)cc3N3CCC(C(=O)N4CCCC4)CC3)CC2C1 (stereo not shown) [Example 37, 1,1,1,3,3,3-Hexafluoropropan-2-yl 5-[(4-chloro-2-[4-[(pyrrolidin-1-yl)carbonyl]piperidin-1-yl]phenyl)methyl]-octahydropyrrolo[3,4-c]pyrrole-2-carboxylate] | < 100 nM | 1000 to 10000 nM | > 75% | 1000 to 10000 nM | ≤ 25% | < 25% | 25 to 75% |
| O=C(OC(C(F)(F)F)C(F)(F)F)N1CC2CN(Cc3ccc(Cl)cc3N3CCOC4CCCC43)CC2C1 (stereo not shown) [Example 4, 1,1,1,3,3,3-Hexafluoropropan-2-yl 5-(4-chloro-2-(hexahydrocyclopenta[b][1,4]oxazin-4(4aH)-yl)benzyl)hexahydropyrrolo[3,4-c]pyrrole-2(1H)-carboxylate] | 100 to 1000 nM | 1000 to 10000 nM | > 75% | 1000 to 10000 nM | ≤ 25% | < 25% | < 25% |
| CC(=O)N1CC2(CCN(c3ccccc3CN3CC4CN(C(=O)OC(C(F)(F)F)C(F)(F)F)CC4C3)C2)C1 (stereo not shown) [Example 137, 1,1,1,3,3,3-hexafluoropropan-2-yl 5-[(2-[2-acetyl-2,6-diazaspiro[3.4]octan-6-yl]phenyl)methyl]-octahydropyrrolo[3,4-c]pyrrole-2-carboxylate] | < 100 nM | 1000 to 10000 nM | > 75% | 1000 to 10000 nM | ≤ 25% | < 25% | < 25% |
| CCc1cc(CN2CC3CN(C(=O)OC(C(F)(F)F)C(F)(F)F)CC3C2)n(-c2ccccc2Cl)n1 (stereo not shown) [Example 169, 1,1,1,3,3,3-hexafluoropropan-2-yl 5-[[1-(2-chlorophenyl)-3-ethyl-1H-pyrazol-5-yl]methyl]-octahydropyrrolo[3,4-c]pyrrole-2-carboxylate] | < 100 nM | 1000 to 10000 nM | > 75% | 1000 to 10000 nM | ≤ 25% | 25 to 75% | < 25% |
